Consider 35 molecules from patent US20210347785A1, “PREPARATION AND APPLICATION OF AROMATIC COMPOUND HAVING IMMUNOREGULATORY FUNCTION” (SHANGHAI ENNOVABIO PHARMACEUTICALS CO., LTD., priority 2018, published 2021).

The target in this test is T1, PD-1/PD-L1 (Homo sapiens, UniProt Q9NZQ7).
T1 construct: purchased Cisbio 63ADK000CPDEC
Description: PD-1/PD-L1 homogeneous time-resolved fluorescence (HTRF) binding assay. Conditions: 665 nm/620 nm ratio. From the text:
Test Example 1: Detect the Inhibitory Effect of the Compound to the Binding of PD-1/PD-L1 Protein
The PD-1/PD-L1 homogeneous time-resolved fluorescence method is used to detect the binding ability of the compound with PD-L1.
PD-1/PD-L1 binding assay kit (Cisbio, Cat #63ADK000CPDEC) was chosen, which contains two proteins Tag 1-PD-L1 and Tag 2-PD-1, and two antibodies Anti-Tag1-Eu^3+ and Anti-Tag2-XL 665. The principle of detection was: Anti-tag1-Eu^3+ was used as the donor of HTRF, and Anti-Tag2-XL 665 was used as the acceptor of HTRF. When Tag 1-PD-L1 interacts with Tag 2-PD-1, the added HTRF donor and the acceptor are close to each other. After the donor has received the excitation energy, part of the energy was transferred to the acceptor, thus generating 665 nm emission light. […] The inhibitory effect of the compound can be determined by comparing the ratio of 665 nm/620 nm. Tag 1-PD-L1 was diluted with Diluent buffer (cat #62DLBDDF) to a working concentration of 10 nM, Tag 2-PD-1 was diluted with Diluent buffer to a working concentration of 500 nM, Anti-Tag1-Eu^3+ was diluted with detection buffer (cat #62DB1FDG) at a ratio of 1:100, Anti-Tag2-XL 665 was diluted with detection buffer at a ratio of 1:20, and the compound to be detected was diluted with diluent buffer to a final concentration of 2×. Compound solution (2 μL) was added to each well of a 384-well plate, then Tag 1-PD-L1 (4 μL) and Tag 2-PD-1 (4 μL) were added successively. The mixture was incubated at room temperature for 15 minutes. Then Anti-Tag1-Eu^3+ (5 μL) and Anti-Tag2-XL 665 (5 μL) were added, and the mixture was incubated overnight at room temperature. BioTek Synergy™ Neo2 multifunctional microplate reader was used to detect so as to provide the 665 nm/620 nm ratio. PrismGraphd 5.02 was used to fit the IC50 curve.
A general note: In TR-FRET formats the signal depends on donor and acceptor labels being close together.

Each structure is given as a SMILES string. Where only a bound is given, the exact number is not on record here.

T1 sequence (Q9NZQ7 19-238 limits assumed): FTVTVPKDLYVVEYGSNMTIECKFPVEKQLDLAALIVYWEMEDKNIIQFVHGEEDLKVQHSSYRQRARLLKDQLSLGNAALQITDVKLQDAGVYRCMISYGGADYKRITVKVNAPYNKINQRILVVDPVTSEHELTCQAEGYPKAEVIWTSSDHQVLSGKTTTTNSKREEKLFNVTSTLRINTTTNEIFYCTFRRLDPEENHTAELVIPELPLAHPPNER

A word on the IC50: it is the concentration at which inhibition is half-maximal. Turning to `Cc1c(Nc2csc3cc(CNCCO)cnc23)cccc1-c1ccccc1` [Compound 1, 2-(((3-((2-Methyl-[1,1′-biphenyl]-3-yl)amino)thieno[3,2-b]pyridin-6-yl)methyl)amino)ethane-1-ol], the IC50 was under 100 nM. In the case of `Cc1c(Nc2csc3cc(CN4C[C@@H](O)C[C@H]4C(=O)O)cnc23)cccc1-c1ccccc1` [Compound 2, (2S,4S)-4-hydroxy-1-((3-((2-methyl-[1,1′-biphenyl]-3-yl)amino)thieno[3,2-b]pyridine-6-yl)methyl)pyrrolidine-2-carboxylic acid], the IC50 is under 100 nM.

For `NC(=O)CNCc1nc2c(Nc3cccc(-c4ccccc4)c3Cl)nccc2s1` [Compound 3, 2-(((4-((2-chloro-[1,1′-biphenyl]-3-yl)amino)thiazolo[4,5-c]pyridin-2-yl)methyl)amino) acetamide], the IC50 was under 100 nM.

As for `O=C(O)[C@@H]1C[C@H](O)CN1Cc1nc2c(Nc3cccc(-c4ccccc4)c3Cl)nccc2s1` [Compound 4], the IC50 was under 100 nM. `OCCNCc1nc2c(Nc3cccc(-c4ccccc4)c3Cl)nccc2s1` [Compound 5, 2-(((4-((2-Chloro-[1,1′-biphenyl]-3-yl)amino)thiazolo[4,5-c]pyridin-2-yl)methyl)amino)ethane-1-ol]: the IC50 is under 100 nM. Under `O[C@@H]1CCN(Cc2nc3c(Nc4cccc(-c5ccccc5)c4Cl)nccc3s2)C1` [Compound 6, (R)-1-((4-((2-Chloro-[1,1′-biphenyl]-3-yl)amino)thiazolo[4,5-c]pyridin-2-yl)methyl)pyrrolidin-3-ol] stands 100 to 1000 nM; under `O[C@H]1CCN(Cc2nc3c(Nc4cccc(-c5ccccc5)c4Cl)nccc3s2)C1` [Compound 7, (S)-1-((4-((2-Chloro-[1,1′-biphenyl]-3-yl)amino)thiazolo[4,5-c]pyridin-2-yl)methyl)pyrrolidin-3-ol], 100 to 1000 nM. Under `O=C(O)CNCc1nc2c(Nc3cccc(-c4ccccc4)c3Cl)nccc2s1` [Compound 8, ((4-((2-Chloro-[1,1′-biphenyl]-3-yl)amino)thiazolo[4,5-c]pyridin-2-yl)methyl)glycine] stands under 100 nM; under `OCCNCc1nc2c(Nc3cccc(-c4ccc5c(c4)OCCO5)c3Cl)nccc2s1` [Compound 10, 2-(((4-((2-chloro-3-(2,3-dihydrobenzo[b][1,4]dioxin-6-yl)phenyl)amino)thiazolo[4,5-c)pyridin-2-yl)methyl)amino)ethane-1-ol], under 100 nM; under `OCCNCc1nc2c(Nc3cccc(-c4cccc(OCCCCN5CCC(O)C5)c4)c3Cl)nccc2s1` (centres unmarked) [Compound 12, 1-(4-((2′-chloro-3′-((2-(((2-hydroxyethyl)amino)methyl)thiazolo[4,5-c]pyridin-4-yl)amino)-[1,1′-biphenyl]-3-yl)oxo)butyl)pyrrolidin-3-ol], under 100 nM.

Consider `CN(CCCO)CCCOc1cccc(-c2cccc(Nc3nccc4sc(CNCC(=O)O)nc34)c2Cl)c1` [Compound 14, ((4-((2-chloro-3′-(3-((3-hydroxypropyl)(methyl)amino)propoxy)-[1,1′-biphenyl]-3-yl)amino)thiazolo[4,5-c]pyridin-2-yl)methyl)glycine], for which the IC50 is under 100 nM. The figure for `O=C(O)CNCc1nc2c(Nc3cccc(-c4cccc(OCCCN5CCC(O)C5)c4)c3Cl)nccc2s1` (centres unmarked) [Compound 15, ((4-((2-chloro-3′-(3-(3-hydroxypyrrolidine-1-yl)propoxy)-[1,1′-biphenyl]-3-yl)amino)thiazolo[4,5-c]pyridine-2-yl)methyl)glycine] is under 100 nM; for `Cc1c(OCCCN2CCC(O)C2)cccc1-c1cccc(Nc2nccc3sc(CNCC(=O)O)nc23)c1Cl` (centres unmarked) [Compound 16, ((4-((2-chloro-3′-(3-(3-hydroxypyrrolidin-1-yl)propoxy)-2′-methyl-[1,1′-biphenyl]-3-yl)amino)thiazolo[4,5-c]pyridin-2-yl)methyl)glycine] it is under 100 nM. For `OCCNCc1nc2ccnc(Nc3cccc(-c4ccccc4)c3Cl)c2s1` [Compound 17, 2-(((4-((2-chloro-[1,1′-biphenyl]-3-yl)amino)thiazolo[5,4-c]pyridin-2-yl)methyl)amino)ethane-1-ol], the IC50 is 100 to 1000 nM. Turning to `COc1nc(-c2cccc(-c3cccc(Nc4nccc5sc(CNCC(=O)O)nc45)c3Cl)c2Cl)ccc1CNC[C@@H]1CCC(=O)N1` [Compound 18, (S)-((4-((2,2′-dichloro-3′-(6-methoxy-5-((((5-carbonylpyrrolidin-2-yl)methyl)amino)methyl)pyridin-2-yl)-[1,1′-biphenyl]-3-yl)amino)thiazolo[4,5-c]pyridin-2-yl)methyl)glycine], the IC50 is under 100 nM. The figure for `COc1nc(-c2cccc(-c3cccc(Nc4nccc5sc(CNCC(=O)OCc6oc(=O)oc6C)nc45)c3Cl)c2Cl)ccc1CNC[C@@H]1CCC(=O)N1` [Compound 19, (5-methyl-2-carbonyl-1,3-dioxazole-4-yl) methyl (S)-((4-((2,2′-dichloro-3′-(6-methoxy-5-((5-carbonylpyrrolidin-2-yl)methyl)pyridine-2-yl)-[1,1′-biphenyl]-3-yl)amino)thiazolo [4,5-c]pyridine-2-yl)methyl) glycine] is under 100 nM. Under `COc1nc(-c2cccc(-c3cccc(Nc4nccc5sc(CNCC(=O)O)nc45)c3Cl)c2C)ccc1CNC[C@@H]1CCC(=O)N1` [Compound 20] stands under 100 nM; under `Cc1c(-c2ccc(CNC[C@@H]3CCC(=O)N3)c(O)n2)cccc1-c1cccc(Nc2nccc3sc(CNCC(=O)O)nc23)c1Cl` [Compound 21], under 100 nM; under `COc1nc(-c2cccc(-c3cccc(Nc4nccc5sc(CNCC(=O)O)nc45)c3Cl)c2Cl)ccc1CN1CC2(CCC(=O)N2)C1` [Compound 22], under 100 nM. Under `O=C(O)CNCc1nc2c(Nc3cccc(-c4cccc(-c5ccc(CNC[C@@H]6CCC(=O)N6)c(O)n5)c4Cl)c3Cl)nccc2n1CCO` [Compound 23] stands under 100 nM. Consider `COc1nc(-c2cccc(-c3cccc(Nc4nccc5sc(CNCC#N)nc45)c3Cl)c2Cl)ccc1CNC[C@@H]1CCC(=O)N1` [Compound 24], for which the IC50 was under 100 nM.

Regarding `COc1nc(-c2cccc(-c3cccc(Nc4nccc5sc(CNCC(=O)O)nc45)c3Cl)c2Cl)ccc1CN1CCC2(CNC(=O)C2)C1` (centres unmarked) [Compound 25], the IC50 is under 100 nM. The figure for `COc1nc(-c2cccc(-c3cccc(Nc4nccc5sc(CNCC(=O)O)nc45)c3Cl)c2Cl)cnc1CNC[C@@H]1CCC(=O)N1` [Compound 26] is 100 to 1000 nM; for `COc1nc(-c2cccc(-c3cccc(Nc4nccc5sc(CNCC(=O)O)nc45)c3Cl)c2Cl)cc(C)c1CNC[C@@H]1CCC(=O)N1` [Compound 27] it is under 100 nM. The figure for `COc1nc(-c2cccc(-c3cccc(Nc4nccc5sc(CNCC(=O)O)nc45)c3Cl)c2Cl)c(Cl)cc1CNC[C@@H]1CCC(=O)N1` [Compound 28] is under 100 nM; for `COc1nc(-c2cccc(-c3cccc(Nc4nccc5sc(CN6CC(NC(C)=O)C6)nc45)c3Cl)c2Cl)ccc1CN1CC2(CCC(=O)N2)C1` [Compound 29] it is under 100 nM; for `COc1nc(-c2cccc(-c3cccc(Nc4nccc5sc(CNCC(=O)O)nc45)c3Cl)c2Cl)cc(C)c1CN1CC2(CCC(=O)N2)C1` [Compound 30] it is under 100 nM. Turning to `COc1nc(-c2cccc(-c3cccc(Nc4nccc5sc(CN6C[C@@H](O)CC6=O)nc45)c3Cl)c2Cl)ccc1CN1CC2(CCC(=O)N2)C1` [Compound 31], the IC50 was under 100 nM. The figure for `COc1nc(-c2cccc(-c3cccc(Nc4nccc5sc(CN6CC(C(=O)O)C6)nc45)c3Cl)c2Cl)ccc1CN1CC2(CCC(=O)N2)C1` [Compound 32] is under 100 nM; for `COc1nc(-c2cccc(-c3cccc(Nc4nccc5sc(CN6CCC[C@H](C(=O)O)C6)nc45)c3Cl)c2Cl)ccc1CN1CC2(CCC(=O)N2)C1` [Compound 33] it is under 100 nM. The figure for `COc1nc(-c2cccc(-c3cccc(Nc4nccc5sc(CNCc6nn[nH]n6)nc45)c3Cl)c2Cl)ccc1CN1CC2(CCC(=O)N2)C1` [Compound 39] is under 100 nM; for `COc1nc(-c2cccc(-c3cccc(Nc4nccc5sc(CN6CCC(C(=O)O)CC6)nc45)c3Cl)c2Cl)ccc1CNC[C@@H]1CCC(=O)N1` [Compound 40] it is under 100 nM.

As for `COc1nc(-c2cccc(-c3cccc(Nc4nccc5sc(CN6CCC[C@@H]6C(=O)O)nc45)c3Cl)c2Cl)ccc1CNC[C@@H]1CCC(=O)N1` [Compound 41], the IC50 is under 100 nM. For the molecule `COc1nc(-c2cccc(-c3cccc(Nc4nccc5sc(CN6CCCC[C@@H]6C(=O)O)nc45)c3Cl)c2Cl)ccc1CNC[C@@H]1CCC(=O)N1` [Compound 42], the IC50 was under 100 nM. Under `COc1cc(-c2cccc(-c3cccc(Nc4nccc5sc(CN6CCC(C(=O)O)CC6)nc45)c3Cl)c2Cl)nc(C)c1CNC[C@@H]1CCC(=O)N1` [Compound 43] stands under 100 nM.
